The values that follow come from publication PMC11643962, “Exploring 4,7-Disubstituted Pyrimido[4,5-d]pyrimidines as Antiviral and Anticancer Agents” (Molecules, 2024).

In series [1] the test system is yellow fever virus (YFV 17D). The series is described as follows: microbe, parasite or virus in culture. The class given is cell-based.
Another series concerns Zika virus (ZikV mr766). The series is described as follows: Antiviral CPE reduction assay, Zika virus mr766 in VeroE6 cells. In kind it is cell-based. The following applies: mean ± SD, no unit printed on the supplement page (Table 2 of the same screen is in µM).
Another series relates to HCoV-OC43. The series is described as follows: Antiviral CPE reduction assay, HCoV-OC43 in HEL299 cells. In kind it is cell-based, human coronavirus OC43. The conditions noted are these: mean ± SD of two or three independent experiments.
The nature of series [2]: in vitro. The conditions noted are these: African green monkey.
Series [3] deals with DND-41 (acute lymphoblastic leukemia). The series is described as follows: MTS proliferation assay, DND-41. The following applies: read-out: Anti-Proliferative Activity (IC50) DND-41.
Series [4] relates to influenza A/H3N2 (A/HK/7/87). Briefly: Antiviral CPE reduction assay, influenza A/H3N2 in MDCK cells. The class given is cell-based, influenza A virus. The conditions noted are these: read-out: Antiviral Activity (EC50) Influenza H3N2.
Series [5] concerns Z-138 (non-Hodgkin lymphoma). The series is described as follows: MTS proliferation assay, Z-138. The following applies: read-out: Anti-Proliferative Activity (IC50) Z-138.
For series [6], the system named is NCI-H460 (lung carcinoma). The series is described as follows: MTS proliferation assay, NCI-H460. The conditions noted are these: read-out: Anti-Proliferative Activity (IC50) NCI-H460. On the technique in general: Tetrazolium dyes change colour on reduction, which living cells bring about.
The nature of series [7]: in vitro. The following applies: dog.
Another series concerns HCoV-229E. The series is described as follows: Antiviral CPE reduction assay, HCoV-229E in HEL299 cells. The class given is cell-based, human coronavirus 229E. The following applies: mean ± SD of two or three independent experiments.
For series [8], the system named is Capan-1 (pancreatic adenocarcinoma). Briefly: MTS proliferation assay, Capan-1. The conditions noted are these: read-out: Anti-Proliferative Activity (IC50) Capan-1.
The test system of series [9] is K-562 (chronic myeloid leukemia). Briefly: MTS proliferation assay, K-562. The conditions noted are these: read-out: Anti-Proliferative Activity (IC50) K-562.
Series [10] deals with herpes simplex virus-1 (HSV-1 KOS). Briefly: Antiviral CPE reduction assay, HSV-1 KOS in HEL299 cells. The class given is cell-based. The conditions noted are these: mean ± SD, no unit printed on the supplement page (Table 2 of the same screen is in µM).
In series [11] the test system is influenza A/H1N1 (A/Ned/378/05). The series is described as follows: Antiviral CPE reduction assay, influenza A/H1N1 in MDCK cells. In kind it is cell-based, influenza A virus. The conditions noted are these: read-out: Antiviral Activity (EC50) Influenza H1N1.
The subject of the next series is LN-229 (glioblastoma). Briefly: MTS proliferation assay, LN-229. The following applies: read-out: Anti-Proliferative Activity (IC50) LN-229.
The test system of series [12] is HL-60 (acute myeloid leukemia). The series is described as follows: MTS proliferation assay, HL-60. The following applies: read-out: Anti-Proliferative Activity (IC50) HL-60.
In series [13] the test system is influenza B (B/Ned/537/05). The series is described as follows: Antiviral CPE reduction assay, influenza B in MDCK cells. The class given is cell-based, influenza B virus. The conditions noted are these: read-out: Antiviral Activity (EC50) Influenza B.
Series [14] concerns eight diverse human cancer cell lines. Briefly: MTS proliferation assay, panel of eight human cancer cell lines (statements for the whole panel). The following applies: 72 h.
Series [15] has as its system HCT-116 (colorectal carcinoma). Briefly: MTS proliferation assay, HCT-116. The following applies: read-out: Anti-Proliferative Activity (IC50) HCT-116.
Series [16] deals with respiratory syncytial virus A (RSV A Long). Briefly: Antiviral CPE reduction assay, RSV A Long in Hep2 cells. The class given is cell-based.
Another series deals with HCoV-NL63. Briefly: Antiviral CPE reduction assay, HCoV-NL63 in Hep3B cells. The class given is cell-based, human coronavirus NL63. The conditions noted are these: mean ± SD of two or three independent experiments.
Series [17] in a line: in vitro. The conditions noted are these: human.
A short description of series [18]: in vitro. The conditions noted are these: human. This is another data set of the same source.
The nature of series [19]: in vitro. The following applies: human. This is another data set of the same source.
Series [20] has as its system eight diverse human cancer cell lines.
The mark [21] stands for this setting: Yellow fever virus, Vero C1008, read-out: Antiviral activity (EC50) YFV 17D.
Where [22] appears, read: Betacoronavirus 1, OC43, HEL 299, MTS.
The mark [23] stands for this setting: Human coronavirus 229E, HEL 299, MTS.
The mark [24] stands for this setting: Human alphaherpesvirus 1, HEL 299, MTS.
[25] abbreviates: Influenza A virus, H3N2, MDCK cells, CPE reduction, MTS, mean ± SD of two or three independent experiments.
Setting [26] is: Influenza A virus, H1N1, MDCK cells, CPE reduction, MTS, mean ± SD of two or three independent experiments.
The mark [27] stands for this setting: read-out: CC50 values (cytotoxic activity) in the cancer cell line panel.
Setting [28] is: human respiratory syncytial virus, HEp-2, Hep2 cells, CPE reduction, MTS, mean ± SD of two or three independent experiments, read-out: Antiviral Activity (EC50) RSV A Long.
Where [29] appears, read: 72 h, MTS, mean ± SD of two independent experiments.
The mark [30] stands for this setting: MDCK cells, CPE reduction, MTS, mean ± SD of two or three independent experiments.

SMILES strings stand for the structures. Where two headings read alike, the source gives them in different places. A value given as a limit tells only on which side of the number the result lay.

Take `CC#CC(=O)Nc1ccc2ncnc(Nc3cccc(Br)c3)c2c1` [CL-387785, reference compound]: the EC50 in [1] (setting [21]) was over 100 µM; with Zika virus (ZikV mr766) (Zika virus, Vero C1008, MTS), over 100 µM; in the series with HCoV-OC43 (setting [22]), 1.8 ± 0.4 µM; in series [4] (Influenza A virus, H3N2, MDCK), over 100 µM; in the series on HCoV-229E (setting [23]) it was 0.4 ± 0.2 µM; in [10] (setting [24]), 1 µM. Moreover, the EC50 is over 100 µM in series [11] (Influenza A virus, H1N1, MDCK); 4.5 ± 1.2 µM in [13] (Influenza B virus, MDCK); over 100 µM in series [16] (human respiratory syncytial virus, HEp-2, read-out: Antiviral Activity (EC50) RSV A Long); over 100 µM with HCoV-NL63 (Human coronavirus NL63, MTS). The results for the CC50 (in “in vitro [2]”; in the series “in vitro [7]”; in [14] (read-out: CC50 values (anti-proliferative activity) against the majority of the tested cell lines)) were over 100 µM, 7.1 ± 0.4 µM and under 10 µM, respectively. Further, the 50% inhibitory concentration (IC50) in series [3] (Homo sapiens, DND41, 72 h) was determined as 0.9 ± 0.2 µM; in series [5] (Homo sapiens, Z-138, 72 h) it was 0.2 ± 0.1 µM; in series [6] (Homo sapiens, NCI-H460, 72 h), 2.8 ± 0.6 µM; in [8] (Homo sapiens, CAPAN-1, 72 h) it was 0.1 ± 0.01 µM; in series [9] (Homo sapiens, K562, 72 h), 65 ± 0.2 µM; in the series with LN-229 (glioblastoma) (Homo sapiens, LN-229, 72 h), 43.8 ± 6.7 µM. The IC50 was 1.9 ± 0.04 µM in series [12] (Homo sapiens, HL-60, 72 h) and 1.3 ± 1.1 µM in series [15] (Homo sapiens, HCT-116, 72 h).
Consider `C=CC(=O)Nc1cccc(Oc2nc(Nc3ccc(N4CCN(C)CC4)cc3OC)ncc2Cl)c1` [WZ4002, reference compound], for which the CC50 (in “in vitro [17]”; in the series “in vitro [18]”; in “in vitro [19]”; in “in vitro [2]”; in “in vitro [7]”; in series [14] (setting [27])) was over 100 µM in each case. The EC50 in series [1] (setting [21]) is over 100 µM; in the series on Zika virus (ZikV mr766) (Zika virus, Vero C1008, MTS), over 100 µM; with HCoV-OC43 (setting [22]), over 100 µM; in series [4] (setting [25]), over 100 µM; in the series on HCoV-229E (setting [23]), 41.8 ± 9.8 µM; in series [10] (setting [24]) it was over 100 µM. Also, the EC50 in series [11] (setting [26]) is over 100 µM; in [13] (Influenza B virus, MDCK), over 100 µM; in [16] (setting [28]), over 100 µM; in the series with HCoV-NL63 (Human coronavirus NL63, MTS) it was over 100 µM. Also, the IC50 was over 100 µM in series [3] (Homo sapiens, DND41, 72 h); over 100 µM in [5] (Homo sapiens, Z-138, 72 h); over 100 µM in series [6] (Homo sapiens, NCI-H460, 72 h); over 100 µM in series [8] (Homo sapiens, CAPAN-1, 72 h); over 100 µM in [9] (Homo sapiens, K562, 72 h); over 100 µM in the series on LN-229 (glioblastoma) (Homo sapiens, LN-229, 72 h). Also, the IC50 was over 100 µM in series [12] (Homo sapiens, HL-60, 72 h) and over 100 µM in series [15] (Homo sapiens, HCT-116, 72 h).
Take `C=CC(=O)Nc1cccc(Nc2nc(Nc3ccc(NC4CN(CCF)C4)cc3OC)ncc2C(F)(F)F)c1` [CNX-2006, reference compound]: the CC50 with MDCK cells is 1.7 ± 0.4 µM; in the series with Hep2 cells it was 11.7 ± 0.8 µM; in the series with HEL299 cells it was 11.1 ± 1 µM; in [20], under 10 µM; in the series with VeroE6 cells it was 9.2 ± 1.1 µM; in the series on Hep3B cells, 4.3 ± 1.8 µM. The EC50 in series [1] (VeroE6 cells, CPE reduction, MTS, mean ± SD, no unit printed on the supplement page (Table 2 of the same screen is in µM), read-out: Antiviral activity (EC50) YFV 17D) is over 100 µM; in the series with Zika virus (ZikV mr766) (MTS) it was over 100 µM; with HCoV-OC43 (MTS), 2.2 ± 0.8 µM; in [4] (setting [30]) it was over 100 µM; with HCoV-229E (MTS), 1.8 ± 0.2 µM; in series [10] (MTS) it was over 100 µM. Also, the EC50 in series [11] (setting [30]) is over 100 µM; in [13] (setting [30]), over 100 µM; in [16] (Hep2 cells, CPE reduction, MTS, mean ± SD of two or three independent experiments, read-out: Antiviral Activity (EC50) RSV A Long), over 100 µM; in the series with HCoV-NL63 (MTS) it was over 100 µM. Further, the IC50 in [3] (setting [29]) came to 4.5 ± 0.2 µM; in [5] (setting [29]) it was 2.6 ± 0.5 µM; in series [6] (setting [29]), 8.7 ± 1.9 µM; in [8] (setting [29]), 1.7 ± 0.01 µM; in series [9] (setting [29]) it was 11.5 ± 0.06 µM; in the series with LN-229 (glioblastoma) (setting [29]) it was 8.2 ± 1.2 µM. Also, the IC50 was determined as 3.8 ± 1.4 µM in series [12] (setting [29]) and 6.6 ± 0.7 µM in [15] (setting [29]).
Consider `C#Cc1cccc(Nc2ncnc3cc4c(cc23)OCCOCCOCCO4)c1` [Icotinib, icotinib, reference compound], for which the CC50 (in the series “in vitro [17]”; in “in vitro [18]”; in “in vitro [19]”; in “in vitro [2]”; in the series “in vitro [7]”; in [14] (setting [27])) was over 100 µM throughout. For the same compound, the EC50 in series [1] (setting [21]) was over 100 µM; in the series with Zika virus (ZikV mr766) (Zika virus, Vero C1008, MTS) it was over 100 µM; with HCoV-OC43 (setting [22]), over 100 µM; in series [4] (setting [25]) it was over 100 µM; with HCoV-229E (setting [23]) it was over 100 µM; in [10] (setting [24]), over 100 µM. Also, the EC50 was over 100 µM in series [11] (setting [26]); over 100 µM in series [13] (Influenza B virus, MDCK cells, CPE reduction, MTS, mean ± SD of two or three independent experiments); over 100 µM in [16] (setting [28]); over 100 µM in the series on HCoV-NL63 (Human coronavirus NL63, MTS). Also, the IC50 was over 100 µM in series [3] (Homo sapiens, DND41, 72 h); over 100 µM in [5] (Homo sapiens, Z-138, 72 h); over 100 µM in [6] (Homo sapiens, NCI-H460, 72 h); over 100 µM in series [8] (Homo sapiens, CAPAN-1, 72 h); over 100 µM in series [9] (Homo sapiens, K562, 72 h); over 100 µM with LN-229 (glioblastoma) (Homo sapiens, LN-229, 72 h). In addition, the IC50 in [12] (Homo sapiens, HL-60, 72 h) is over 100 µM; in series [15] (Homo sapiens, HCT-116, 72 h), over 100 µM.

As usually defined, the EC50 is the concentration needed to bring the measured effect to its halfway point. One may read the IC50 as the concentration needed to halve the response being measured.
